The values that follow come from patent publication US10927105B1 (Lundbeck La Jolla Research Center, Inc., priority 2017, dated 2021).

Structures are written as SMILES.

The test addresses MAGL (Homo sapiens (Human), UniProt Q99685). Briefly: In vitro competitive activity-based protein profiling (human prefrontal cortex membrane fractions, FP-Rh probe), MAGL band. Conditions: read-out: MAGL IC50 (μM) (human); human prefrontal cortex membrane fractions.

MAGL, sequence (Q99685 whole entry): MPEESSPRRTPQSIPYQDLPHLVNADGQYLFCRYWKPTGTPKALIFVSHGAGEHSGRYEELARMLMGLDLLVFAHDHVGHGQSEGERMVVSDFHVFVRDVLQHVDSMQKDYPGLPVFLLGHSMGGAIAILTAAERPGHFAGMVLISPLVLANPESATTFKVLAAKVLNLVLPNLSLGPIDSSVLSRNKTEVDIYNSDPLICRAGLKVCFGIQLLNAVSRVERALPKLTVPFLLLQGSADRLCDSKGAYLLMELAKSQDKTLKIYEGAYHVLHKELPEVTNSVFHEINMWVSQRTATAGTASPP

On to `NC(=O)c1ccn(C(=O)N2CCC3(CCCN3C(=O)c3cc4ccc(C(F)(F)F)cc4s3)CC2)n1` [Example 389, 1-(1-(6-(trifluoromethyl)-benzo-[b]thiophene-2-carbonyl)-1,8-diazaspiro-[4.5]decane-8-carbonyl)-1H-pyrazole-3-carboxamide], for which the IC50 (usually the concentration that gives 50% inhibition) was less than 0.1 µM.
With `Cc1c(CO[C@H]2C[C@@H]3CN(C(=O)n4cc(Cl)c(C(=O)O)n4)C[C@@H]3C2)cccc1C(F)(F)F` [Example 341, 4-chloro-1-(trans-5-((2-methyl-3-(trifluoromethyl)-benzyl)oxy)-octahydrocyclopenta-[c]pyrrole-2-carbonyl)-1H-pyrazole-3-carboxylic acid] the figure was less than 0.1 µM; with `O=C(O)c1ccn(C(=O)N2C[C@H]3C[C@H](Oc4cccc(-c5cccnc5)c4)C[C@H]3C2)n1` [Example 241, 1-(trans-5-(3-(pyridin-3-yl)phenoxy)-octahydrocyclopenta-[c]pyrrole-2-carbonyl)-1H-pyrazole-3-carboxylic acid], less than 0.1 µM; with `O=C(O)c1ccn(C(=O)N2CCC3(CCCN3Cc3cc(-n4cccn4)cc(C(F)(F)F)c3)CC2)n1` [Example 32, 1-(1-(3-(1H-pyrazol-1-yl)-5-(Trifluoromethyl)benzyl)-1,8-diazaspiro[4.5]decane-8-carbonyl)-1H-pyrazole-3-carboxylic Acid], less than 0.1 µM.
Regarding `O=C(O)c1ccn(C(=O)N2C[C@H]3C[C@H](Oc4cccc(-c5ccccn5)c4)C[C@H]3C2)n1` [Example 242, 1-(trans-5-(3-(pyridin-2-yl)phenoxy)-octahydrocyclopenta-[c]pyrrole-2-carbonyl)-1H-pyrazole-3-carboxylic acid], the IC50 was less than 0.1 µM.
For `O=C(O)c1ccn(C(=O)N2CCN(Cc3ccc(C(F)(F)F)cc3N3CC4CCC(C3)O4)CC2)n1` [Example 380, 1-(4-(2-(8-oxa-3-azabicyclo[3.2.1]-octan-3-yl)-4-(trifluoromethyl)-benzyl)piperazine-1-carbonyl)-1H-pyrazole-3-carboxylic acid], the IC50 is less than 0.1 µM.
Turning to `O=C(O)c1nn(C(=O)N2CC3CN(Cc4ccc(N5CCCC5)cc4C(F)(F)F)CC3C2)cc1Cl` (centres unmarked) [Example 140, 4-chloro-1-(5-(4-(pyrrolidin-1-yl)-2-(trifluoromethyl)-benzyl)-octahydropyrrolo-[3,4-c]pyrrole-2-carbonyl)-1H-pyrazole-3-carboxylic acid], the IC50 was less than 0.1 µM.
As for `C[C@@H]1CN(Cc2ccc(C(F)(F)F)cc2N2CCCC2)CCN1C(=O)n1ccc(C(=O)O)n1` [Example 327, (R)-1-(2-methyl-4-(2-(pyrrolidin-1-yl)-4-(trifluoromethyl)-benzyl)-piperazine-1-carbonyl)-1H-pyrazole-3-carboxylic acid], the IC50 was less than 0.1 µM.
Regarding `O=C(O)c1ccn(C(=O)N2CCN(Cc3ccc(C(F)(F)F)cc3N3CCOCC3)CC2)n1` [Example 3, 1-(4-(2-Morpholino-4-(trifluoromethyl)benzyl)piperazine-1-carbonyl)-1H-pyrazole-3-carboxylic Acid], the IC50 is less than 0.1 µM.
Next, `CN(Cc1cc(N2CCCC2)cc(C(F)(F)F)c1)C1(C)CCN(C(=O)n2ccc(C(=O)O)n2)CC1` [Example 381, 1-(4-methyl-4-(methyl(3-(pyrrolidin-1-yl)-5-(trifluoromethyl)-benzyl)amino)-piperidine-1-carbonyl)-1H-pyrazole-3-carboxylic acid]: less than 0.1 µM; `O=C(O)c1ccn(C(=O)N2C[C@H]3C[C@H](OCc4cc(F)cc(Cl)c4)C[C@H]3C2)n1` [Example 53, 1-(trans-5-((3-chloro-5-fluorobenzyl)oxy)-octahydrocyclopenta-[c]pyrrole-2-carbonyl)-1H-pyrazole-3-carboxylic acid]: less than 0.1 µM.
In the case of `NC(=O)c1ccn(C(=O)N2CCC3(CCN(Cc4cccc(C(F)(F)F)c4)C3)C2)n1` (centres unmarked) [Example 429, 1-(7-(3-(trifluoromethyl)-benzyl)-2,7-diazaspiro[4.4]-nonane-2-carbonyl)-1H-pyrazole-3-carboxamide], the IC50 was less than 0.1 µM.
As for `O=C(O)c1ccn(C(=O)N2CCC(OCc3cc(Cl)cc(Oc4ccc(Cl)cc4)c3)CC2)n1` [Example 27, 1-(4-((3-Chloro-5-(4-chlorophenoxy)benzyl)oxy)piperidine-1-carbonyl)-1H-pyrazole-3-carboxylic Acid], the IC50 was less than 0.1 µM.
With `C[C@@H]1CN(Cc2ccc(Cl)c(-c3nccs3)c2)CCN1C(=O)n1ccc(C(=O)O)n1` [Example 299, (R)-1-(4-(4-chloro-3-(thiazol-2-yl)benzyl)-2-methylpiperazine-1-carbonyl)-1H-pyrazole-3-carboxylic acid] the figure was less than 0.1 µM.
As to `O=C(O)c1ccn(C(=O)N2C[C@H]3C[C@H](Oc4cc(F)cc(Cl)c4)C[C@H]3C2)n1` [Example 222, 1-(trans-5-(3-chloro-5-fluorophenoxy)-octahydrocyclopenta-[c]pyrrole-2-carbonyl)-1H-pyrazole-3-carboxylic acid], the IC50 is less than 0.1 µM.
Regarding `CC(C)(O)COc1cccc(CN2CCN(C(=O)n3ccc(C(=O)O)n3)CC2)c1Cl` [Example 213, 1-(4-(2-chloro-3-(2-hydroxy-2-methylpropoxy)-benzyl)piperazine-1-carbonyl)-1H-pyrazole-3-carboxylic acid], the IC50 was less than 0.1 µM.
Next, `O=C(O)c1nn(C(=O)N2CCC3(CCN(Cc4cccc(Cl)c4C(F)(F)F)C3)CC2)cc1Cl` [Example 26, 4-Chloro-1-(2-(3-chloro-2-(trifluoromethyl)benzyl)-2,8-diazaspiro[4.5]decane-8-carbonyl)-1H-pyrazole-3-carboxylic Acid]: less than 0.1 µM.
Next, `C[C@H]1C[C@H](N(C)Cc2cccc(C(F)(F)F)c2)CCN1C(=O)n1ccc(C(N)=O)n1` [Example 259, 1-((2S,4R)-2-methyl-4-(methyl(3-(trifluoromethyl)-benzyl)amino)-piperidine-1-carbonyl)-1H-pyrazole-3-carboxamide]: less than 0.1 µM; `NC(=O)c1ccn(C(=O)N2CCC3(CCN(Cc4cccc(C(F)(F)F)c4)C3)CC2)n1` [Example 284, 1-(2-(3-(trifluoromethyl)-benzyl)-2,8-diazaspiro[4.5]-decane-8-carbonyl)-1H-pyrazole-3-carboxamide]: less than 0.1 µM; `CC(C)COc1cccc(O[C@H]2C[C@@H]3CN(C(=O)n4ccc(C(=O)O)n4)C[C@@H]3C2)c1Cl` [Example 448]: less than 0.1 µM.
Take `O=C(O)c1ccn(C(=O)N2CCC(Oc3cc(N4CCCC4)cc(C(F)(F)F)c3)CC2)n1` [Example 308, 1-(4-(3-(pyrrolidin-1-yl)-5-(trifluoromethyl)-phenoxy)-piperidine-1-carbonyl)-1H-pyrazole-3-carboxylic acid]: the IC50 is less than 0.1 µM.
For `O=C(O)c1ccn(C(=O)N2C[C@H]3C[C@H](OCc4ccc(Cl)c(-c5nccs5)c4)C[C@H]3C2)n1` [Example 345, 1-(trans-5-((4-chloro-3-(thiazol-2-yl)benzyl)oxy)-octahydrocyclopenta-[c]pyrrole-2-carbonyl)-1H-pyrazole-3-carboxylic acid], the IC50 was less than 0.1 µM.
Next, `CNC(=O)c1ccn(C(=O)N2CC3CN(Cc4ccc(N5CCOCC5)cc4C(F)(F)F)CC3C2)n1` (centres unmarked) [Example 440, N-methyl-1-(5-(4-morpholino-2-(trifluoromethyl)-benzyl)-octahydropyrrolo-[3,4-c]pyrrole-2-carbonyl)-1H-pyrazole-3-carboxamide]: less than 0.1 µM.
